Laboratory results from US5559101A, “L-ribofuranosyl nucleosides” (priority 1994, dated 1996).
In brackets after ≈: the same amount, converted by molar mass. Like-named read-outs stand apart in the source and are kept apart here.

Key:
[1] = system: OM-1 (colon); assay: Radiometric growth inhibition of tumor cells, OM-1; format: cell-based, human; parameters: % SURVIVAL TUMOR: concentration or dose not given beside the values; conditions: for IC50: Homo sapiens
Source text: (§1) CELL LINES: Eight different established human cell lines CALU (lung), COLO320 (colon), H578St (breast), HT-29 (colon), MCF-7 (breast), OM-1 (colon), SKLU (lung) and SKMES(lung), and two control cell lines (bone marrow and/or fibroblast cells) were utilized. All cell lines were obtained from the Tumor Cloning Laboratory, Institute for Drug Development, Cancer Therapy and Research Center, San Antonio, Tex. All cell lines grew as monolayers in the appropriate culture medium supplemented with heat-inactivated calf serum. All reagents were obtained from Grand Island Biological Co., Grand Island, N.Y.
(§2) The iv formulations of the compounds of the present invention were prepared with sterile buffered saline and stored at -70° C. until required for testing.
(§3) Following trypsinization, tumor cells were suspended in tissue culture medium and exposed to the antitumor agents continuously at three different concentrations: 10, 1 and 0.1 μg/ml.
(§4) RADIOMETRIC MEASUREMENT OF GROWTH INHIBITION: Growth inhibition was assessed with the BACTEC System 460 (Johnston Laboratories, Towson, Md.) after addition of the antitumor agent to the cell in the respective growth medium containing ^14 C-glucose at a final concentration of 2 μCi/ml.
(§5) Two mls of the tumor cell suspension containing radioactive glucose were seeded into sterile, disposable 15 ml vials by injection through self-sealing rubber-aluminum caps. […] The seeded vials were then incubated at 37° C. Measurement of the release of ^14 CO2 resulting from the metabolism of ^14 C-glucose were performed on days 6, 9, 12 and 15 in the BACTEC instrument. This instrument flushes the ^14 CO2 containing air out of the vials into an ionization chamber that converts dpm to growth index values. […] Each data point represents triplicate values.
(§6) All compounds were dosed on an equimilimolar basis.

[2] = In vitro survival of bone marrow control cells (radiometric BACTEC); format: cell-based; parameters: concentration or dose not given beside the values
Source text: as §1, §2, §3, §4, §5, §6

[3] = system: SKLU (lung); assay: Radiometric growth inhibition of tumor cells, SKLU; format: cell-based, human; parameters: % SURVIVAL TUMOR: concentration or dose not given beside the values; conditions: for IC50: Homo sapiens
Source text: as §1, §2, §3, §4, §5, §6

[4] = system: COLO320 (colon); assay: Radiometric growth inhibition of tumor cells, COLO320; format: cell-based, human; parameters: % SURVIVAL TUMOR: concentration or dose not given beside the values; conditions: for % SURVIVAL TUMOR: continuous exposure; for IC50: Homo sapiens, COLO 320
Source text: as §1, §2, §3, §4, §5, §6

[5] = system: CALU (lung); assay: Radiometric growth inhibition of tumor cells, CALU; format: cell-based, human
Source text: as §1, §2, §3, §4, §5, §6

[6] = system: MCF-7 (breast); assay: Radiometric growth inhibition of tumor cells, MCF-7; format: cell-based, human; parameters: % SURVIVAL TUMOR: concentration or dose not given beside the values; conditions: MCF-7
Source text: as §1, §2, §3, §4, §5, §6

[7] = system: HS578T (breast); assay: Radiometric growth inhibition of tumor cells, HS578T; format: cell-based, human; conditions: HS578T; for % SURVIVAL TUMOR: continuous exposure; for IC50: Homo sapiens, Hs-578T, concentration required to kill 50%, read-out: IC 50
Source text: as §1, §2, §3, §4, §5, §6

[8] = system: HT29 (colon); assay: Radiometric growth inhibition of tumor cells, HT29; format: cell-based, human; parameters: % SURVIVAL TUMOR: concentration or dose not given beside the values; conditions: for IC50: Homo sapiens, HT-29, concentration required to kill 50%, read-out: IC 50
Source text: as §1, §2, §3, §4, §5, §6

[9] = OM-1, concentration required to kill 50%, read-out: IC 50
[10] = bone marrow control cells, continuous exposure, read-out: % SURVIVAL BONE MARROW
[11] = SKLU, concentration required to kill 50%, read-out: IC 50
[12] = COLO320, concentration required to kill 50%, read-out: IC 50

Row | SMILES | IC50 [1, 9] [µg/mL] | % SURVIVAL TUMOR ([1]; OM-1, continuous exposure) [%] | viability [2, 10] [%] | % SURVIVAL TUMOR ([3]; SKLU, continuous exposure) [%] | IC50 [3, 11] [µg/mL] | viability ([2]; bone marrow cells) [%] | other results
1 | O=c1ccn2c(n1)O[C@H]1[C@@H](O)[C@H](CO)O[C@H]12 [O^2,O^2' -Anhydro-1-α-L-ribofuranosyluracil] | 2.97 (≈ 13.1 µM) | 46.4 | 70.9 | – | – | – | –
2 | Nc1ccn([C@@H]2O[C@@H](CO)[C@H](O)[C@@H]2O)c(=O)n1 [α-L-ribofuranosyl cytosine, 1-α-L-Ribofuranosylcytosine] | – | – | 120 | 88.8 | – | – | IC50 [3]: 240 µg/mL (≈ 987 µM); % SURVIVAL TUMOR ([4]; COLO320): 82.3%; IC50 [4]: 34.9 µg/mL (≈ 143 µM)
3 | O=c1[nH]c(=O)n([C@@H]2O[C@@H](CO)[C@H](O)[C@@H]2O)cc1F [α-L-ribofuranosyl-5-fluorouracil, 1-α-L-ribofuranosyl-5-fluorouracil] | 0.87 (≈ 3.32 µM) | 0.4 | 94.6 | 71 | 43.4 (≈ 166 µM) | – | –
4 | O=c1ccn([C@@H]2O[C@@H](CO)[C@H](O)[C@@H]2O)c(=O)[nH]1 [α-L-ribofuranosyl-uracil, 1-α-L-Ribofuranosyluracil] | – | – | – | – | – | 96.6 | IC50 ([5]; Homo sapiens, CALU, concentration required to kill 50%, read-out: IC 50): > 10 µg/mL; % SURVIVAL TUMOR ([5]; human, calu lung tumor cells): 89.1%
5 | O=c1[nH]cnc2c1ncn2[C@H]1O[C@@H](CO)[C@H](O)[C@@H]1O [β-:-ribofuranosyl hypoxanthine, 9-β-L-Ribofuranosylhypoxanthine] | 82.7 (≈ 308 µM) | 87.3 | 118 | 82.5 | 48.1 (≈ 179 µM) | – | IC50 ([6]; Homo sapiens, MCF7, concentration required to kill 50%, read-out: IC 50): 38.1 µg/mL (≈ 142 µM); % SURVIVAL TUMOR ([6]; continuous exposure): 96.8%; % SURVIVAL TUMOR ([4]; COLO320): 68.2%; IC50 [4, 12]: 17.9 µg/mL (≈ 66.7 µM); % SURVIVAL TUMOR [7]: 93.4%; IC50 [7]: > 10 µg/mL
6 | Nc1ncnc2c1ncn2[C@H]1O[C@@H](CO)[C@H](O)[C@@H]1O [β-L-ribofuranosyl adenine, 9-β-L-Ribofuranosyladenine] | 4.23 (≈ 15.8 µM) | – | – | – | – | 91.2 | % SURVIVAL TUMOR ([1]; human, om-1 colon tumor cells): 50.9%
7 | Nc1ccn([C@H]2O[C@@H](CO)[C@H](O)[C@@H]2O)c(=O)n1 [β-L-ribofuranosyl cytosine, 1-β-L-Ribofuranosylcytosine] | – | 39.2 | 72.6 | – | – | – | IC50 [1]: 5.9 µg/mL (≈ 24.3 µM)
8 | Nc1nc(O)c2ncn([C@H]3O[C@@H](CO)[C@H](O)[C@@H]3O)c2n1 [β-L-ribofuranosyl guanine, 9-β-L-Ribofuranosylguanine] | 0.097 (≈ 0.342 µM) | 44.7 | 170 | – | – | – | % SURVIVAL TUMOR ([8]; HT29, continuous exposure): 80.9%; IC50 ([8]; HT29): > 10 µg/mL
9 | O=c1ccn([C@H]2O[C@@H](CO)[C@H](O)[C@@H]2O)c(=O)[nH]1 [β-L-ribofuranosyl uracil, 1-β-L-Ribofuranosyluracil] | 0.094 (≈ 0.385 µM) | – | – | – | – | 112 | IC50 ([8]; HT29): > 10 µg/mL; % SURVIVAL TUMOR ([8]; human, ht29 colon tumor cells): 78.7%; % SURVIVAL TUMOR ([1]; human, om-1 colon tumor cells): 30.8%
10 | O=c1[nH]c(=O)n([C@H]2O[C@@H](CO)[C@H](O)[C@@H]2O)cc1F [β-L-ribofuranosyl-5-fluorouracil, 1-β-L-Ribofuranosyl-5-fluorouracil] | 37.8 (≈ 144 µM) | 71.9 | 130 | 69.7 | 32.2 (≈ 123 µM) | – | % SURVIVAL TUMOR ([8]; HT29, continuous exposure): 64.7%; IC50 ([8]; HT29): 51 µg/mL (≈ 195 µM); % SURVIVAL TUMOR ([4]; COLO320): 81.9%; IC50 [4, 12]: 188 µg/mL (≈ 717 µM)
11 | Nc1nc(S)c2ncn([C@H]3O[C@@H](CO)[C@H](O)[C@@H]3O)c2n1 [β-L-ribofuranosyl-6-thioguanine, 9-β-L-Ribofuranosyl-6-thioguanine] | 42.7 (≈ 143 µM) | – | – | – | 8.7 (≈ 29.1 µM) | 97.4 | % SURVIVAL TUMOR ([3]; human, sklu lung tumor cells): 45.1%; % SURVIVAL TUMOR ([1]; human, om-1 colon tumor cells): 83.1%; % SURVIVAL TUMOR [7]: 66.6%; IC50 [7]: 17.1 µg/mL (≈ 57.1 µM)
